In patent US12637465B2, “Pharmaceutically acceptable salts of sepiapterin” (PTC Therapeutics MP, Inc., priority 2018, dated 2026):

Columns and labels:
Format in all cases: physicochemical
[1] = Solid form stability study of salts and/or co-crystals at 25° C./60% RH and 40° C./75% RH
Method: The stability of the prepared salts and/or co-crystals was analyzed after 1 and 2 weeks at 25° C. and 60% relative humidity and 40° C. and 75% relative humidity. […] None of the phosphate, tartrate, or nicotinate salts and/or co-crystals underwent a form change during the stability testing, and each of them retained greater than 97% purity over the two weeks of the study. In fact, both the tartrate and nicotinate both retained greater than 99% purity.

[2] = Form change/disproportionation of residual solids by XRPD after suspension in water or Medisca Oral Mix; settings: for Form change (residual solids, XRPD): RT, listed as phosphate salt and/or co-crystal
Method: The kinetic solubility was evaluated for nicotinate, phosphate, L-tartrate, and fumarate salts and/or co-crystals of sepiapterin in water and […] Oral Mix. X-ray powder diffraction (XRPD) was performed for the residual solids to identify form change/disproportionation. Solids were suspended into the media with target conc. of 7 mg/mL (calculated by freebase). […] Oral Mix after 1 hour. […] Oral Mix.

[3] = Kinetic solubility in water and Medisca Oral Mix (HPLC solubility, purity and pH of supernatant); settings: RT; for Solubility: calculated using freebase, target conc. 7 mg/mL; for Solubility / Purity (area %) of supernatant / pH: listed as phosphate salt and/or co-crystal; for Purity (area %) of supernatant: for reference only
Method: The kinetic solubility was evaluated for nicotinate, phosphate, L-tartrate, and fumarate salts and/or co-crystals of sepiapterin in water and […] Oral Mix. X-ray powder diffraction (XRPD) was performed for the residual solids to identify form change/disproportionation. Solids were suspended into the media with target conc. of 7 mg/mL (calculated by freebase).

In the case of `C[C@H](O)C(=O)C1=Nc2c(nc(N)[nH]c2=O)NC1` [Toluenesulfonate, sepiapterin], the Form change ([1]; 1 week, 25° C./60% RH) is reported as “No”, the “Purity (Area %)” value ([1]; 1 week, 25° C./60% RH) is reported as 94.19 Area % and the “Purity vs. initial (%)” value ([1]; 1 week, 25° C./60% RH) is reported as 97.3%. For the same compound, the Form change ([1]; 1 week, 40° C./75% RH) was “No”, the “Purity (Area %)” value ([1]; 1 week, 40° C./75% RH) was 89.11 Area % and the “Purity vs. initial (%)” value ([1]; 1 week, 40° C./75% RH) was 92.0%. The Form change ([1]; 2 weeks, 25° C./60% RH) was “No”, the “Purity (Area %)” value ([1]; 2 weeks, 25° C./60% RH) was 91.40 Area % and the “Purity vs. initial (%)” value ([1]; 2 weeks, 25° C./60% RH) was 94.4%. For the same compound, the Form change ([1]; 2 weeks, 40° C./75% RH) was “No”, the “Purity (Area %)” value ([1]; 2 weeks, 40° C./75% RH) was 88.12 Area % and the “Purity vs. initial (%)” value ([1]; 2 weeks, 40° C./75% RH) was 91.0%. For the same compound, the “Purity (Area %)” value ([1]; Initial) was 96.84 Area %.
With `C[C@H](O)C(=O)C1=Nc2c(nc(N)[nH]c2=O)NC1` [Glycolate, sepiapterin] the “Purity (Area %)” value ([1]; 1 week, 25° C./60% RH) was 98.93 Area %, the “Purity vs. initial (%)” value ([1]; 1 week, 25° C./60% RH) was 99.7% and the “Purity (Area %)” value ([1]; 1 week, 40° C./75% RH) was 98.54 Area %. For the same compound, the “Purity vs. initial (%)” value ([1]; 1 week, 40° C./75% RH) was 99.3%, the “Purity (Area %)” value ([1]; 2 weeks, 25° C./60% RH) was 98.86 Area % and the “Purity vs. initial (%)” value ([1]; 2 weeks, 25° C./60% RH) was 99.7%. For the same compound, the “Purity (Area %)” value ([1]; 2 weeks, 40° C./75% RH) was 98.52 Area %, the “Purity vs. initial (%)” value ([1]; 2 weeks, 40° C./75% RH) was 99.3% and the “Purity (Area %)” value ([1]; Initial) was 99.19 Area %.
With `C[C@H](O)C(=O)C1=Nc2c(nc(N)[nH]c2=O)NC1` [Phosphate, sepiapterin] the “Form change (residual solids, XRPD)” value ([2]; Medisca Oral Mix, 1 hr) was “Yes**”, the “Form change (residual solids, XRPD)” value ([2]; Medisca Oral Mix, 4 hr) was “Yes**” and the “Form change (residual solids, XRPD)” value ([2]; Medisca Oral Mix, 24 hr) was “Yes**”. The “Form of the residual solids in Medisca Oral Mix” value ([2]; Medisca Oral Mix, after 1 hour) was “converted to freebase”, the “Form change (residual solids, XRPD)” value ([2]; Water, 1 hr) was “Yes” and the “Form change (residual solids, XRPD)” value ([2]; Water, 4 hr) was “Yes”. The “Form change (residual solids, XRPD)” value ([2]; Water, 24 hr) was “Yes”, the “Form of the residual solids in water” value ([2]; water, after 1 hour) was “converted to freebase” and the “Stability compared with the other salts and/or co-crystals tested” value [1] was “noticeably more stable than the others”. The “Underwent a form change during the stability testing” value ([1]; 1 and 2 weeks, 25° C./60% RH and 40° C./75% RH) was “None”, the Form change ([1]; 1 week, 25° C./60% RH) was “No” and the “Purity (Area %)” value ([1]; 1 week, 25° C./60% RH) was 95.35 Area %. The “Purity vs. initial (%)” value ([1]; 1 week, 25° C./60% RH) was 98.6%, the Form change ([1]; 1 week, 40° C./75% RH) was “No” and the “Purity (Area %)” value ([1]; 1 week, 40° C./75% RH) was 95.91 Area %. For the same compound, the “Purity vs. initial (%)” value ([1]; 1 week, 40° C./75% RH) was 99.1%, the Form change ([1]; 2 weeks, 25° C./60% RH) was “No” and the “Purity (Area %)” value ([1]; 2 weeks, 25° C./60% RH) was 95.87 Area %. The “Purity vs. initial (%)” value ([1]; 2 weeks, 25° C./60% RH) was 99.1%, the Form change ([1]; 2 weeks, 40° C./75% RH) was “No” and the “Purity (Area %)” value ([1]; 2 weeks, 40° C./75% RH) was 94.50 Area %. The “Purity vs. initial (%)” value ([1]; 2 weeks, 40° C./75% RH) was 97.7%, the “Purity (Area %)” value ([1]; Initial) was 96.75 Area % and the Observation ([3]; Medisca Oral Mix, 1 hr) was “Turbid”. For the same compound, the “Solubility” value ([3]; Medisca Oral Mix, 1 hr) was 2500 µg/mL, the “Purity (area %) of supernatant” value ([3]; Medisca Oral Mix, 1 hr) was 99.23 area % and the pH ([3]; Medisca Oral Mix, 1 hr) was 3.1. The Observation ([3]; Medisca Oral Mix, 4 hr) was “Turbid”, the “Solubility” value ([3]; Medisca Oral Mix, 4 hr) was 3200 µg/mL and the “Purity (area %) of supernatant” value ([3]; Medisca Oral Mix, 4 hr) was 98.95 area %. The pH ([3]; Medisca Oral Mix, 4 hr) was 3.1, the Observation ([3]; Medisca Oral Mix, 24 hr) was “Turbid” and the “Purity (area %) of supernatant” value ([3]; Medisca Oral Mix, 24 hr) was 87.63 area %. For the same compound, the pH ([3]; Medisca Oral Mix, 24 hr) was 3.1, the Observation ([3]; Water, 1 hr) was “Turbid” and the “Purity (area %) of supernatant” value ([3]; Water, 1 hr) was 89.92 area %. The pH ([3]; Water, 1 hr) was 2.1, the Observation ([3]; Water, 4 hr) was “Turbid” and the “Purity (area %) of supernatant” value ([3]; Water, 4 hr) was 89.52 area %. For the same compound, the pH ([3]; Water, 4 hr) was 2.1, the Observation ([3]; Water, 24 hr) was “Turbid” and the “Purity (area %) of supernatant” value ([3]; Water, 24 hr) was 82.64 area %. The pH ([3]; Water, 24 hr) was 2.1.
In the case of `C[C@H](O)C(=O)C1=Nc2c(nc(N)[nH]c2=O)NC1` [HCI, sepiapterin], the Form change ([1]; 1 week, 25° C./60% RH) is reported as “No”, the “Purity (Area %)” value ([1]; 1 week, 25° C./60% RH) is reported as 97.19 Area % and the “Purity vs. initial (%)” value ([1]; 1 week, 25° C./60% RH) is reported as 103.5%. For the same compound, the Form change ([1]; 1 week, 40° C./75% RH) was “No”, the “Purity (Area %)” value ([1]; 1 week, 40° C./75% RH) was 89.25 Area % and the “Purity vs. initial (%)” value ([1]; 1 week, 40° C./75% RH) was 95.0%. The Form change ([1]; 2 weeks, 25° C./60% RH) was “No”, the “Purity (Area %)” value ([1]; 2 weeks, 25° C./60% RH) was 91.84 Area % and the “Purity vs. initial (%)” value ([1]; 2 weeks, 25° C./60% RH) was 97.8%. For the same compound, the Form change ([1]; 2 weeks, 40° C./75% RH) was “No”, the “Purity (Area %)” value ([1]; 2 weeks, 40° C./75% RH) was 84.16 Area % and the “Purity vs. initial (%)” value ([1]; 2 weeks, 40° C./75% RH) was 89.6%. The “Purity (Area %)” value ([1]; Initial) was 93.94 Area %.
For `C[C@H](O)C(=O)C1=Nc2c(nc(N)[nH]c2=O)NC1` [Sulfate, sepiapterin], the Form change ([1]; 1 week, 25° C./60% RH) was “No”, the “Purity (Area %)” value ([1]; 1 week, 25° C./60% RH) was 95.22 Area % and the “Purity vs. initial (%)” value ([1]; 1 week, 25° C./60% RH) was 97.8%. For the same compound, the Form change ([1]; 1 week, 40° C./75% RH) was “No”, the “Purity (Area %)” value ([1]; 1 week, 40° C./75% RH) was 89.44 Area % and the “Purity vs. initial (%)” value ([1]; 1 week, 40° C./75% RH) was 91.9%. The Form change ([1]; 2 weeks, 25° C./60% RH) was “No”, the “Purity (Area %)” value ([1]; 2 weeks, 25° C./60% RH) was 93.46 Area % and the “Purity vs. initial (%)” value ([1]; 2 weeks, 25° C./60% RH) was 96.0%. For the same compound, the Form change ([1]; 2 weeks, 40° C./75% RH) was “No”, the “Purity (Area %)” value ([1]; 2 weeks, 40° C./75% RH) was 88.20 Area % and the “Purity vs. initial (%)” value ([1]; 2 weeks, 40° C./75% RH) was 90.6%. The “Purity (Area %)” value ([1]; Initial) was 97.33 Area %.
